Experimental findings from patent US20250170098A1, “MOLECULAR JACKHAMMER FOR MECHANICAL DESTRUCTION OF CELLULAR STRUCTURE” (William Marsh Rice University, priority 2022, published 2025) are described below.

For data set [1], the system named is A375 cells. Briefly: Crystal violet cell viability assay. The format is cell-based, human. Conditions: 2 μM; 10 min 730 nm light at 80 mW/cm^2. The protocol: Crystal violet cell viability assay. The crystal violet assay was used to measures the cell viability. The principle of this method is that the viable cells adhere to the surface of the cell culture dish and keep growing and remain attached through the standard cell culture conditions during a period of 1-2 days and through the staining conditions in the assay. […] For specific details, A375 cells were harvested and counted, and then 20,000 A375 cells per well were added in 24 cell culture well plate (Corning) and cultured for 1 day at standard incubation conditions of 37° C. and 5% CO2. The cells were treated in four experimental groups (4 samples per group): group 1) 0.1% DMSO, group 2) 0.1% DMSO+NIR light treatment, group 3) 2 μM Cy7.5-amine, and group 4) 2 μM Cy7.5-amine+NIR light. The treatments with 0.1% DMSO or 2 μM Cy7.5-amine were done by adding those respective concentrations to the cells in the media and then incubated for 60 min. Immediately after the incubation, the cells in the groups with “+NIR light”, were treated with 730 nm light at 80 mW/cm^2 for 10 min. After the treatment with NIR light, the media in all the groups was removed and fresh media was added. […] Then the crystal violet was quantified by its absorbance at 570 nm. The cell viability was calculated from the absorbance relative to the absorbance in the cells without any treatment. […]

The test system of data set [2] is A375 cells. Briefly: Clonogenic assay. In kind it is cell-based, human. As for the experimental part: The clonogenic assay was conducted to confirm that cancer cells treated by plasmon-driven MJH are indeed death upon NIR-light activation (FIG. 18). Three molecules were analyzed: the most VDA active BL-204, medium active BL-141-2 and low active Cy7-amine. […] This was accomplished by incubating the MJH molecules with the A375 cells for 50 min and immediately activate the plasmon-driven MJH using 730 nm NIR-light at 80 mW/cm^2 for 10 min. This is considered a short contact time between the MJH and the A375 cells.
Clonogenic assay. A375 cells were seeded in 35 mm cell culture dishes at predetermined densities to allow for an approximately equal number of resultant colonies. The next day, cells were treated with Cy7.5-amine at variable concentration and with or without 730 nm light at 80 mWcm^−2 for 10 min. The cells were incubated with Cy7.5-amine for 50 min before the illumination, the media was replaced with fresh media after the illumination and cells were cultured for 6 days to allow for colony formation. Cells were then washed once with PBS and fixed-stained in a 0.5% (w/v) crystal violet in methanol/water solution (1:1) during 10 min. The excess of crystal violet was washed off with water, the plates were dried at room temperature and then the colonies were counted using ImageJ software version 1.52a, and the survival fraction was determined. All treatments were in triplicate.

For another data set, the system named is B16-F10 melanoma tumors. Briefly: Treatment of B16-F10 melanoma tumors in C57BL/6 mice. The format is in vivo, mouse. As for the experimental part:
Injection of B16-F10 cells subcutaneously in C57BL/6J mice to generate the melanoma tumors. The B16-F10 cells were cultured as described before. Cells were harvested from sub-confluent plates, ˜90%, and fresh media was added to the cells the day before harvesting. The cells were harvested using 0.05% trypsin-EDTA (Gibco, 25-300-054). The harvested cells were re-dispersed in DMEM media without supplements at 1×10^6 cells mL^−1. The cell suspension was kept in ice. Then 100 μL of cells were injected per mouse (this was 100,000 cells per mouse) subcutaneously in the right flank of a 7-8-week-old female mouse (C57BL/6J), in which the hair in the right flank was previously depilated using a shaver. […] Starting at day 12 the tumors were measured using a caliper. […] The volume of the tumor was calculated as: (½)×length×width×height. When the height was not possible to measure in the case of the tumors which were too small (usually <100 mm^3), then the tumor volume was calculated as: (½)×length×width^2. […]
Treatment of B16-F10 tumors with Cy7.5-amine and NIR 730 nm light. […] The light intensity was measured using an Optical Power Meter from Thorlabs, sensor model S302C and console model PM100D. While under light treatment the temperature at the tumor area was measured using an IR thermal camera (Model: Compact Seek Thermal for Android. Seek Thermal, Inc. Santa Barbara, CA). […]

Turning to `CN1/C(=C\C=C2C=C(/C=C/C3=[N+](CCCCCC(=O)NCCCCCCN)c4ccc5ccccc5c4C3(C)C)CCC\2)C(C)(C)c2c1ccc1ccccc21` [Cy7.5-amine], in the data set on A375 cells [1], the “dead cells by crystal violet assay” value was found to be 99.9%. In addition, the “cells eradicated, clonogenic assay” value in the data set on A375 cells [2] (0.5 μM, 10 min 730 nm light at 80 mWcm^−2) is recorded as 100%. Besides, the “eradication of A375 cells, clonogenic assay (in words)” value with A375 cells [2] (1 μM + light (80 mWcm^−2 of 730 nm for 10 min)) is reported as “complete eradication”. Further, the “size of the B16-F10 tumors” value with B16-F10 melanoma tumors (8 μg in 50 μL PBS intratumorally, 730 nm LED at for 5 min) is listed as “significantly reduced”. Further, the “temperature increase of B16-F10 tumors under light treatment” value in the data set on B16-F10 melanoma tumors (Cy7.5-amine with light, for 5 min) is roughly 5 °C.
